Publication PMC9168620, “Genetic validation of Aspergillus fumigatus phosphoglucomutase as a viable therapeutic target in invasive aspergillosis” (The Journal of Biological Chemistry, 2022)
Where “and” joins values, the source holds several entries; their conditions need not be identical. Equal entries are not always repeated. Where two headings read alike, the source gives them in different places.

What was measured:
AfPGM = biological target: T1, AfPGM (Aspergillus fumigatus, UniProt Q4WY53); test: biochemical; conditions: for IC50 / IC50 AfPGM: WT AfPGM 5 nM, no preincubation, 500 μM Glc-1P
T1 construct: Full length AfPGM; 6His-GST (N, cleaved yes); made in house; host or cells: E. coli BL21 (DE3) pLysS
T1 sequence (Q4WY53 whole entry): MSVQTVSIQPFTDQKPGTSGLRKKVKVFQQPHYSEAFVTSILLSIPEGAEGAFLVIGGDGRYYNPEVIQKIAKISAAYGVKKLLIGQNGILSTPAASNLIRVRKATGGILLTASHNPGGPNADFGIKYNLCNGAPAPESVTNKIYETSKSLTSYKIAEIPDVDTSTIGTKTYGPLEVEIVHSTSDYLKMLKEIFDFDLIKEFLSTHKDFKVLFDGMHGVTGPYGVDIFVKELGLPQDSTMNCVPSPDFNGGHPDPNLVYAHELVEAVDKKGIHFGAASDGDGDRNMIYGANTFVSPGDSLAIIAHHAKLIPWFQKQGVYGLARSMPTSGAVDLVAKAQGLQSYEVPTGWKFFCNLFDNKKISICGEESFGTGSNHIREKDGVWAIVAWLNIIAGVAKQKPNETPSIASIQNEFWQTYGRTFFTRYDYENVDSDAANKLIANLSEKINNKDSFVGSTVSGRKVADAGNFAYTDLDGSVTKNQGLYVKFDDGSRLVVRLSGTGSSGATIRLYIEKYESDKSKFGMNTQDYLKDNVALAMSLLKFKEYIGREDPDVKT
Description: (§1) The reaction mixture contained MOPS–NaOH (pH 7.4; 50 mM), MgSO4 (1.5 mM), NADP^+ (1 mM), G6PDH (0.01 U) from L. mesenteroides, Glc-1P (500 μM), Glc-1,6-2P (50 μM), and enzyme (5 nM). The reaction was carried out at 25 °C for 6 min in a total volume of 100 μl. Formation of NADPH was detected in real-time (every 1.5 min), measuring fluorescence signal (excitation at 360 nm; emission at 460 nm). To measure the inhibitory activity, compounds with different concentrations (3% (v/v) DMSO) were added to the reaction system. IC50 values were calculated using the product (NADPH) concentration at 6 min with 500 μM Glc-1P.
(§2) Figure S11: Representative enzyme activity assays for PGMs. Error bars represent standard deviation of three determinations. Panel A and B show the time course of PGMs and PGM mutants in which sugar recognition glutamates are mutated to glutamine. […] Values in parentheses indicate the time at which DTT (1 mM) was added.

AfPGMC353∗ = biological target: T2, AfPGMC353∗ (Aspergillus fumigatus, UniProt Q4WY53, C131S/C242S/C364S); test: G6PDH coupled assay for PGM, AfPGMC353∗ variant (C353 the sole cysteine); format: biochemical; conditions: no preincubation; for IC50: IC50 AfPGMC353, AfPGMC353∗ (all other cysteines mutated to serine) 5 nM
T2 construct: Full length AfPGM; 6His-GST (N, cleaved yes); made in house; host or cells: E. coli BL21 (DE3) pLysS
T2 sequence (Q4WY53 whole entry C131S/C242S/C364S): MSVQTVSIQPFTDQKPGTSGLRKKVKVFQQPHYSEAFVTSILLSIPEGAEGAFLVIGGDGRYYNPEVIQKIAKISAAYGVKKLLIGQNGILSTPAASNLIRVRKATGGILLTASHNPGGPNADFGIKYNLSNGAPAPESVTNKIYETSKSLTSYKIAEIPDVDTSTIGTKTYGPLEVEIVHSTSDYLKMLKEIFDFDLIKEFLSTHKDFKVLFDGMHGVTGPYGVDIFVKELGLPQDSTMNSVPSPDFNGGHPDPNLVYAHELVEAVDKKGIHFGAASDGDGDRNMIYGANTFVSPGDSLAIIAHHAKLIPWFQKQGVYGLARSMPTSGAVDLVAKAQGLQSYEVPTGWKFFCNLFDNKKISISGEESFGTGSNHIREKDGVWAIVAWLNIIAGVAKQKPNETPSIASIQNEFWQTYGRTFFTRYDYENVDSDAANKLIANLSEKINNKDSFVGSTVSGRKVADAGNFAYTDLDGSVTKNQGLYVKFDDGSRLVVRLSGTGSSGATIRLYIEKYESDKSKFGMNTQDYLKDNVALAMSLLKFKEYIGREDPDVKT
Description: as §1

HsPGM = biological target: T3, HsPGM (Homo sapiens, UniProt P36871); test: G6PDH coupled assay for PGM, HsPGM; format: biochemical
T3 construct: Full length HsPGM; 6His-GST (N, cleaved yes); made in house; host or cells: E. coli BL21 (DE3) pLysS (same protocol as AfPGM)
T3 sequence (P36871 1-562): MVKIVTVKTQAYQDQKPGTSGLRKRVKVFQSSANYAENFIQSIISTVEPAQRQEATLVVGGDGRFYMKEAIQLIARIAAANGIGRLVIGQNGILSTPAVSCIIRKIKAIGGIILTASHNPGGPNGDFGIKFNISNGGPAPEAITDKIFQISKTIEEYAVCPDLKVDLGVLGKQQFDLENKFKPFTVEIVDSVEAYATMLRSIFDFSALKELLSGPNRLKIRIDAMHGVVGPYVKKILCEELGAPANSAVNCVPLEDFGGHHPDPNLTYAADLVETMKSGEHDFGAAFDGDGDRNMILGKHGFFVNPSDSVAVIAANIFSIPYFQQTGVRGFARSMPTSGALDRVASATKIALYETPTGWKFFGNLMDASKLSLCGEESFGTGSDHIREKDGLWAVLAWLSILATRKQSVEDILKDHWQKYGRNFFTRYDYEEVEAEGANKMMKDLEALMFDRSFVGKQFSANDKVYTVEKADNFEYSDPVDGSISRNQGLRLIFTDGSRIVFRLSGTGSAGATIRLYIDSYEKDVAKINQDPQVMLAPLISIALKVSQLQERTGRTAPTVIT
Description: as §1, §2

[1] = HsPGM 5 nM, no preincubation, > values: highest concentration at which the compound can solubilize, read-out: IC50 HsPGM

IC50 AfPGM (AfPGM)	Structure (SMILES)	IC50 (AfPGM)	IC50 (AfPGMC353∗)	IC50 (HsPGM; [1])	other results
	O=c1ccsn1-c1cc(Cl)cc(Cl)c1F [ISFP5, 2-(3,5-dichloro-2-fluorophenyl)isothiazol-3(2H)-one]	1 µM and 0.8 µM	8 µM and 7.8 µM	10 ± 1 µM	
	O=c1ccsn1-c1cccc(Cl)c1 [ISFP13, 2-(3-chlorophenyl)isothiazol-3(2H)-one]	5.8 µM	12.2 µM	100 µM	
	Cc1cc(=O)n(-c2cccc(Cl)c2)s1 [ISFP30, 2-(3-chlorophenyl)-5-methylisothiazol-3(2H)-one]	5.2 µM			IC50 AfPGMC353 (AfPGMC353∗; AfPGMC353∗ (all other cysteines mutated to serine) 5 nM): no inhibition; IC50 HsPGM (HsPGM; HsPGM 5 nM, no preincubation, > values: highest concentration at which the compound can solubilize): no inhibition
no inhibition	CCOC(=O)CCn1sccc1=O [ISFP24, ethyl 3-(3-oxoisothiazol-2(3H)-yl)propanoate]				
	CCOC(=O)c1cc2cc(-n3sccc3=O)ccc2o1 [ISFP15, ethyl 5-(3-oxoisothiazol-2(3H)-yl)benzofuran-2-carboxylate]	2.3 µM	15 µM	> 100 µM	
	N#Cc1cccc(-n2sccc2=O)c1 [ISFP14, 3-(3-oxoisothiazol-2(3H)-yl)benzonitrile]	5.7 µM	9.5 µM	> 100 µM	
	CC(C)OC(=O)c1ccc(-n2sccc2=O)cc1 [ISFP11, isopropyl 4-(3-oxoisothiazol-2(3H)-yl)benzoate]	3.1 µM	6 µM	> 100 µM	
no inhibition	CCOC(=O)Cn1sccc1=O [ISFP23, ethyl 2-(3-oxoisothiazol-2(3H)-yl)acetate]				
	O=c1ccsn1-c1cccc([N+](=O)[O-])c1 [ISFP12, 2-(3-nitrophenyl)isothiazol-3(2H)-one]	5.7 µM	9.5 µM	> 100 µM	
	O=C(OCc1ccccc1)c1ccc(-n2sccc2=O)cc1 [ISFP10, benzyl 4-(3-oxoisothiazol-2(3H)-yl)benzoate]	2 µM	4 µM and 3.6 µM	> 100 µM	Shift in IC50 against AfPGM over preincubation (AfPGM; 15-min preincubation (Fig. S11C, D)): no shift; IC50 (HsPGM; enzyme preincubated with compound for 15 min (Fig. S11E, F), read-out: IC50 HsPGM after preincubation): 6 µM
	O=c1ccsn1-c1c(F)cccc1F [ISFP20, 2-(2,6-difluorophenyl)isothiazol-3(2H)-one]	19 µM	14 µM	86 µM	
	O=C(c1ccc(-n2sccc2=O)cc1)N1CCOCC1 [ISFP18, 2-(4-(morpholine-4-carbonyl)phenyl)isothiazol-3(2H)-one]	19 µM	23 µM	> 100 µM	
	O=c1ccsn1-c1cccc2ccccc12 [ISFP17, 2-(naphthalen-1-yl)isothiazol-3(2H)-one]	3.3 µM	16 µM	> 100 µM	
	CC(=O)OCc1cccc(-n2sccc2=O)c1 [ISFP19, 3-(3-oxoisothiazol-2(3H)-yl)benzyl acetate]	36 µM	115 µM	> 400 µM	
no inhibition	CCOCCn1sccc1=O [ISFP25, 2-(2-ethoxyethyl)isothiazol-3(2H)-one]				
no inhibition	O=c1ccsn1CCc1ccccc1 [ISFP22, 2-phenethylisothiazol-3(2H)-one]				
	CC(C)(C)OC(=O)c1ccc(-n2sccc2=O)cc1 [ISFP8, tert-butyl 4-(3-oxoisothiazol-2(3H)-yl)benzoate]	3.1 µM	6.7 µM	> 100 µM	
	O=c1ccsn1-c1cccc(CO)c1 [ISFP21, 2-(3-(hydroxymethyl)phenyl)isothiazol-3(2H)-one]	23 µM	25 µM	> 400 µM	
no inhibition	O=c1ccsn1Cc1ccccc1 [ISFP26, 2-benzylisothiazol-3(2H)-one]				
	O=c1ccsn1-c1ccccc1F [ISFP16, 2-(2-fluorophenyl)isothiazol-3(2H)-one]	21 µM	23 µM	> 400 µM	

Structure (SMILES)	IC50 AfPGM (AfPGM)	IC50 (AfPGM)	IC50 (AfPGMC353∗)	IC50 (HsPGM; [1])	other results
Cc1csn(-c2cccc(Cl)c2)c1=O [ISFP28, 2-(3-chlorophenyl)-4-methylisothiazol-3(2H)-one]	no inhibition				
O=c1cc(-c2ccccc2)sn1-c1cccc(Cl)c1 [ISFP27, 2-(3-chlorophenyl)-5-phenylisothiazol-3(2H)-one]	no inhibition				
